Data reported in patent US9981956B2, “Small molecule inhibitors of fibrosis” (THE CALIFORNIA INSTITUTE FOR BIOMEDICAL RESEARCH, priority 2013, dated 2018).
Where two headings read alike, the source gives them in different places.

Key:
PXR = target: T1, PXR (Homo sapiens, UniProt O75469); assay: PXR (Cyp 3A4) activation assay in DPX2 cells; type: cell-based; conditions: compounds tested at 10, 1 and 0.1 μM, read-out: PXR activation (fold induction compared to Rifampicin)
T1 construct: expressed in transfected cells; host or cells: DPX2 cells
T1 sequence (O75469 1-434): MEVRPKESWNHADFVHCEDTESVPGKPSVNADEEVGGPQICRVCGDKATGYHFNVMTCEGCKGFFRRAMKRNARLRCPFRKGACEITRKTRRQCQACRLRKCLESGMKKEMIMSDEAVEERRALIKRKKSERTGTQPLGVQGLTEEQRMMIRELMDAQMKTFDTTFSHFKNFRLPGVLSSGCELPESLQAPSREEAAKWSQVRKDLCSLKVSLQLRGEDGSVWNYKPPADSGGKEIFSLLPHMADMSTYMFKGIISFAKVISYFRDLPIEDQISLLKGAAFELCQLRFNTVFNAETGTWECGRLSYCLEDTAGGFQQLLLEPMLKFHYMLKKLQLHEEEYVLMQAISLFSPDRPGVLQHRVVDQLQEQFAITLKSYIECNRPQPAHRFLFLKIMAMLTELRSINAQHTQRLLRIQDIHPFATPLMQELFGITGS
Procedure: CYP3A4 metabolism was evaluated by using P450-Glo™ CYP3A4 Assay with Luciferin-IPA as the substrate of CYP3A4 and represented as RLU (Relative Luminescence Units). PXR activation was evaluated by using a luciferase detection reagent, ONE-Glo™ and represented as RLU. The luminescence light intensity was directly proportional to the extent of PXR activation and accompanying gene transcription in the DPX2 cells. Compounds were tested at 10, 1, and 0.1 μM in the assay. Fold of induction=(RLU/RFU of compound treated sample)/(RLU/RFU of vehicle treated sample), RFU was the signal of cell viability. RLU was the signal of CYP3A metabolism and PXR activation. 0.1% DMSO was used as vehicle. Cell viability was detected by using CellTiter-Fluor™ and represented as RFU (Relative Fluorescence Units).
Activation potency was defined as negative, weak, moderate and strong. Negative, weak, moderate and strong activators are those that give <15%, <40%, <69% and >70%, respectively, of the response produced by 10 μM RIF at 10 μM.

[1] = Mouse pharmacokinetic (PK) studies, snapshot format; type: in vivo; conditions: plasma, po, 20 mg/kg; for AUC(0-t): read-out: AUC0-24 h
Procedure: Compounds with suitable in vitro ADME properties were progressed to in vivo PK studies. A snapshot format in mice was used to quickly assess the potential for lead candidates to be orally bioavailable. The snapshot format involved a single dose (typically 20 mg/kg) given orally in a standard vehicle (5% PEG/DMSO in water for example). Compounds were infused directly into MS analysis to determine unique MRM (multiple reaction monitoring) signal that is concentration dependent in either ESI positive or negative modes. HPLC analysis using various solvent gradients was performed from organic and aqueous solution to ensure good peak shape of desired Q1/Q2 masses. Formulations included 45% Cyclodextrin in water (as is used clinically for Itraconazole). Other formulations that may used are solutol, Eudragit, MC/Tween, etc. Standard curves were generated using plasma spiked with compound at various concentrations (10 ng/mL to 2000 ng/mL) to determine linear range of Q1/Q2 mass signal to compound concentration using female mouse heparinized plasma. Mice were dosed orally with compound, plasma samples collected by retro-orbital bleeds. Five time points were collected (30 min, 1 h, 4 h, 8 h, 24 h) into heparinized collection tubes. Protein precipitation was performed and compound extracted in cold acetonitrile and analyzed by MS. Nonwinlin was used for PK modeling as needed.

[2] = test system: bleomycin-induced lung fibrosis; assay: Bleomycin-induced lung fibrosis model; type: in vivo, mouse; conditions: 10 mg/kg SID versus AM-152 (30 mg/kg BID) and pirfenidone (400 mg/kg BID)
Source text: These in vivo assays took 6-8 weeks to complete (including full histological analysis). Typical experiments consisted of groups of 6-8 animals treated with itraconazole (2-4 doses), 1 or 2 itraconazole analogues (2-4 doses), vehicle, and benchmark treatments (pirfenidone and AM-152). AM-152 (Amira Pharmaceuticals) is an LPA1 (Lysophosphatidic acid 1) receptor antagonist. This target has been described as relevant to exacerbation of IPF systems in a mouse bleomycin model (British Journal of Pharmacology (2010), 160, 1699-1713). AM-152 is an advanced compound on this target as has been previously described in more detail in WO 2012/078805 and was used as a positive control and comparator to the compound disclosed in this application.
Nine-week old B6 male mice (Taconic farms) were surgically implanted with osmotic pumps delivering 25 mg/kg bleomycin for seven days. 17 days after surgery mice were treated with drug for 2 weeks. Drug treatments were administered as described in study design (FIG. 14). Previously described anti-fibrotic drugs AM-152 and pirfenidone were used as positive control drugs. […] Stained lung sections were analyzed according to a modified Ashcroft scoring system (FIG. 16) and using an unbiased automated image analysis method. […] Total stained area was then determined by using the area measurement function within ImageJ.

[3] = 20 mg/kg in 0.5% MC/0.5% TW80 suspension vehicle
[4] = 20 mg/kg in 45% cyclodextrin with water

fold induction (PXR)	Cmax [1, 3] [nM]	AUC(0-t) [1, 3] [µM·h]	Cmax [1, 4] [nM]	AUC(0-t) [1, 4] [µM·h]	SMILES	Lung fibrosis disease severity compared to control compounds [2]
~1					CCC(C)n1ncn(-c2ccc(N3CCN(c4ccc(OC[C@@H]5CO[C@@](Cn6nccn6)(c6ccc(Cl)cc6Cl)O5)cc4)CC3)cc2)c1=O (stereo partly shown) [Compound 15]	
~1.1	170	2.21	1710	8.08	CCC(C)n1ncn(-c2ccc(N3CCN(c4ccc(OC[C@@H]5CO[C@@](Cc6ccnnc6)(c6ccc(Cl)cc6Cl)O5)cc4)CC3)cc2)c1=O (stereo partly shown) [Compound 22]	
~1.5			3160	42.7	CCC(C)n1ncn(-c2ccc(N3CCN(c4ccc(OC[C@@H]5CO[C@@](Cn6nccn6)(c6ccccc6)O5)cc4)CC3)cc2)c1=O (stereo partly shown) [Compound 42]	decreased lung fibrosis disease severity with efficacy that was as good or better
